The subject of data set [1] is Mus musculus. The experiment in a line: Anti-necroptotic activity in TNFalpha/Z-VAD-FMK induced SIRS male C57BL/6J mouse model assessed as reduction in IL-1beta in lung at 5 to 10 mg/kg, po pre-administered with compound via gavage for 2 hrs followed by […] of Z-VAD-FMK stimulation for 15 mins with subsequent TNF-alpha stimulation for 1 hrs and re-current […] of Z-VAD-FMK stimulation and measured after 8 hrs post SIRS induction by ELISA. It is filed as functional, organism-based. Conditions: dose 5-10 mg/kg, time 10.0 hrs. Background: ELISA stands for enzyme-linked immunosorbent assay.

The nature of data set [2]: Acute toxicity in male C57BL/6J mouse assessed as effect on urea level at 2 g/Kg, IG measured after 72 hrs. The note with it: in vivo, po, 2000 mg/kg.
In data set [3] the test system is HT-29. The experiment in a line: Anti-necroptotic activity in TSZ-induced human HT-29 cells assessed as increase in cell viability preincubated with compound followed by Z-VAD-FMK, SM164 and TNFalpha addition and measured after 12 hrs by CellTiter-Lumi luminescent cell viability assay. It is filed as functional, cell-based. Conditions: dose 0.156-10 µM.
Data set [4] can be described thus: Acute toxicity in male C57BL/6J mouse assessed as hemorrhage in intestine at 2 g/Kg, IG measured after 72 hrs by H and E staining based analysis. Format: tissue-based. Conditions: in vivo, po, 2000 mg/kg.
A short description of data set [5]: Acute toxicity in male C57BL/6J mouse assessed as inflammatory cell infiltration in intestine at 2 g/Kg, IG measured after 72 hrs by H and E staining based analysis. Format: tissue-based. The note with it: in vivo, po, 2000 mg/kg.
In data set [6] the test system is HeLa. The experiment in a line: Downregulation of EGFR expression in RIPK3-deficient human HeLa cells at 0.75 to 6 uM incubated for 9 hrs by Western blot analysis. It is filed as functional, cell-based. The note with it: dose 0.75-6 µM. A general note: In western blotting, separated proteins are transferred to a membrane and probed.
For data set [7], the system named is HT-29. The data set can be described thus: Downregulation of RIPK1 protein level in human HT-29 cells at 6 uM preincubated with MG132 for 2 hrs followed by compound addition and measured after 9 hrs by Western blot analysis. Format: functional, cell-based.
Data set [8] relates to Mus musculus. The experiment in a line: Anti-necroptotic activity in TNFalpha/Z-VAD-FMK induced SIRS male C57BL/6J mouse model assessed as reduction in IL6 in liver at 5 to 10 mg/kg, po pre-administered with compound via gavage for 2 hrs followed by […] of Z-VAD-FMK stimulation for 15 mins with subsequent TNF-alpha stimulation for 1 hrs and re-current […] of Z-VAD-FMK stimulation and measured after 8 hrs post SIRS induction by ELISA. Format: functional, organism-based. The note with it: dose 5-10 mg/kg, time 10.0 hrs.

The target in data set [9] is Heat shock protein HSP90 (Homo sapiens) (UniProt P07900+P08238). The data set can be described thus: Inhibition of HSP90 in TSZ-induced human HT-29 cells assessed as reduction in EGFR protein level preincubated with compound followed by Z-VAD-FMK, SM164 and TNFalpha stimulation and measured after 6 hrs by Western blot analysis. Format: cell-based. Conditions: dose 0.625-10 µM.

Data set [10] concerns Mus musculus. The data set can be described thus: Anti-necroptotic activity in TNFalpha/Z-VAD-FMK induced SIRS male C57BL/6J mouse model assessed as reduction in IL-1beta in spleen at 5 to 10 mg/kg, po pre-administered with compound via gavage for 2 hrs followed by […] of Z-VAD-FMK stimulation for 15 mins with subsequent TNF-alpha stimulation for 1 hrs and re-current […] of Z-VAD-FMK stimulation and measured after 8 hrs post SIRS induction by ELISA. The note with it: dose 5-10 mg/kg, time 10.0 hrs. It is filed as functional, organism-based.

Data set [11] has as its system Mus musculus. The experiment in a line: Anti-necroptotic activity in TNFalpha/Z-VAD-FMK induced SIRS male C57BL/6J mouse model assessed as survival rate at 5 mg/kg, po pre-administered with compound via gavage for 2 hrs followed by […] of Z-VAD-FMK stimulation for 15 mins with subsequent TNF-alpha stimulation for 1 hrs and re-current […] of Z-VAD-FMK stimulation and measured after 8 hrs post SIRS induction relative to control. It is filed as functional. The note with it: time 10 hrs.

For data set [12], the system named is HeLa. The data set can be described thus: Upregulation of HSP70 expression in RIPK3-deficient human HeLa cells at 1.5 uM incubated for 9 hrs by Western blot analysis. It is filed as functional, cell-based.
Data set [13] deals with L929. The experiment in a line: Anti-necroptotic activity in TZ-induced mouse L929 cells assessed as increase in cell viability preincubated with compound followed by Z-VAD-FMK and mTNFalpha stimulation and measured after 4 hrs by CellTiter-Lumi luminescent cell viability assay. It is filed as functional, cell-based. The note with it: dose 0.625-10 µM.
For data set [14], the system named is Mus musculus. The data set can be described thus: Anti-necroptotic activity in TNFalpha/Z-VAD-FMK induced SIRS male C57BL/6J mouse model assessed as reduction in IL-1beta in kidney at 5 to 10 mg/kg, po pre-administered with compound via gavage for 2 hrs followed by […] of Z-VAD-FMK stimulation for 15 mins with subsequent TNF-alpha stimulation for 1 hrs and re-current […] of Z-VAD-FMK stimulation and measured after 8 hrs post SIRS induction by ELISA. The note with it: dose 5-10 mg/kg, time 10.0 hrs. It is filed as functional, organism-based.

A short description of data set [15]: Acute toxicity in male C57BL/6J mouse assessed as effect on creatinine level at 2 g/Kg, IG measured after 72 hrs. Conditions: in vivo, po, 2000 mg/kg.
The subject of data set [16] is HT-29. The experiment in a line: Effect on MLKL protein level in human HT-29 cell precipitate at 6 uM measured after 9 hrs by Western blot analysis. It is filed as functional, cell-based.
The test system of data set [17] is Mus musculus. The experiment in a line: Anti-necroptotic activity in TNFalpha/Z-VAD-FMK induced SIRS male C57BL/6J mouse model assessed as reduction in IL6 in spleen at 5 to 10 mg/kg, po pre-administered with compound via gavage for 2 hrs followed by […] of Z-VAD-FMK stimulation for 15 mins with subsequent TNF-alpha stimulation for 1 hrs and re-current […] of Z-VAD-FMK stimulation and measured after 8 hrs post SIRS induction by ELISA. The note with it: dose 5-10 mg/kg, time 10.0 hrs. Format: functional, organism-based.

The subject of data set [18] is Mus musculus. The experiment in a line: Anti-necroptotic activity in TNFalpha/Z-VAD-FMK induced SIRS male C57BL/6J mouse model assessed as survival rate at 10 mg/kg, po pre-administered with compound via gavage for 2 hrs followed by […] of Z-VAD-FMK stimulation for 15 mins with subsequent TNF-alpha stimulation for 1 hrs and re-current […] of Z-VAD-FMK stimulation and measured after 8 hrs post SIRS induction relative to control. Format: functional. The note with it: time 10 hrs.

Data set [19] concerns HT-29. The experiment in a line: Downregulation of RIPK1 protein level in human HT-29 cells at 6 uM preincubated with Z-VAD-FMK for 2 hrs followed by compound addition and measured after 9 hrs by Western blot analysis. It is filed as functional, cell-based.
Data set [20] in a line: Acute toxicity in male C57BL/6J mouse assessed as effect on AST level at 2 g/Kg, IG measured after 72 hrs. Conditions: in vivo, po, 2000 mg/kg.
Data set [21] can be described thus: Acute toxicity in male C57BL/6J mouse assessed as inflammatory cell infiltration in spleen at 2 g/Kg, IG measured after 72 hrs by H and E staining based analysis. It is filed as tissue-based. Conditions: in vivo, po, 2000 mg/kg.
Data set [22] concerns EOL1. The data set can be described thus: Anti-necroptotic activity in TSZ-induced human EOL1 cells assessed as increase in cell viability at 2.5 to 20 uM preincubated with compound followed by Z-VAD-FMK, SM164 and TNFalpha addition and measured after 7 hrs by CellTiter-Lumi luminescent cell viability assay relative to control. It is filed as functional. The note with it: dose 2.5-20 µM.

Data set [23] concerns HT-29. The data set can be described thus: Downregulation of RIPK1 protein level in human HT-29 cells at 6 uM preincubated with NH4Cl for 2 hrs followed by compound addition and measured after 9 hrs by Western blot analysis. It is filed as functional, cell-based.

Each structure is given as a SMILES string. The source made the active and inactive calls. The calls are words filed in the database; no cut-off is given here.

For the compound `Cn1ccc(-c2ccc(NC(=O)[C@]34CCC(C)(C)C[C@H]3[C@H]3C(=O)C=C5[C@@]6(C)C=C(C#N)C(=O)C(C)(C)[C@@H]6CC[C@@]5(C)[C@]3(C)CC4)cc2)n1`, the result in [1], in data set [6], in data set [7], in data set [8], in data set [10] and in data set [12] was Active. The result in data set [14], in data set [17], in data set [19] and in data set [23] was Active. Further, the Activity entry is “Non-toxic” in data set [2]; “Dose-dependent-effect” in data set [3]; “Non-toxic” in [4]; “Non-toxic” in data set [5]; “Dose-dependent-effect” in [13]; “Non-toxic” in [15]. The results for the Activity entry in data set [20], in [21] and in [22] were “Non-toxic”, “Non-toxic” and 100%, respectively. Besides, the inhibition result in data set [9] was “Dose-dependent-effect”. The survival at 5 mg/kg in data set [11] was 58%. Further, the result in [16] was inactive. In [18], the survival at 10 mg/kg worked out at 100%.

The record behind these values is ChEMBL document CHEMBL6177981, “Bardoxolone Derivatives as Novel Pseudo-Natural Necroptosis Inhibitors by Destabilizing HSP90 Client Proteins” (J Med Chem, 2025).
